Measurements: US20170266166A1, “Compositions and Methods to Inhibit Estrogen Receptor Beta for the Treatment of Renal Cell Carcinoma” (University of Rochester, priority 2014, published 2017)

Assays:
786-O tumors = assay: anti-estrogen treatment of mice carrying 786-O RCC tumors (IVIS imaging, tumor weight, metastasis); type: in vivo; settings: for RCC tumor growth and metastasis (IVIS imaging, tumor weights): mouse RCC model, result in words; for mice that developed distal metastasis: ip injection every other day, after 4 weeks of treatments, 3 of the 6 DMSO treated mice developed metastasis
From the text: Results of IVIS imaging, tumor size, and tumor weights are shown and compared.
The Fe-NTA transformed human renal carcinoma cell lines 7860.sh-ERβ/7860.sh-Luc and A498 hERβ/Vec were directly injected into the renal capsule of nude mice. After anesthesia, the back skin was lifted with a pair of blunt forceps and cut along the midline with a pair of scissors creating an incision approximately an inch in length; the dermis was separated from the underlying body wall on both sides of the incision for bilateral grafting or on one side only (blunt dissection). The animal was placed on its side, and the location of the kidney identified by viewing it through the body wall. A small incision ([…]) was made in the body wall just slightly longer than the long axis of the kidney. The exteriorized kidney was allowed to rest on the body wall. We used a syringe to inject the cells at the cell numbers of 1×10^6, both with matrigel (1:1) under the renal capsule.
ERβ antagonists, PHTPP and ICI, inhibit RCC cell growth and cell invasion Knockdown of ERβ reduced RCC cells growth and Invasion. It was then investigated whether PHTPP (ERβ selective antagonist) and ICI 182,780 (ICI, anti-estrogen) have therapeutic effects to reduce RCC tumor growth and metastasis in vivo. […] Also, both anti-estrogens have been used to treat mouse breast cancer models. The same doses of PHTPP and ICI were applied in mice carrying 786-O tumors DMSO (mock control), PHTPP and ICI were administrated via intraperitoneal (ip) injection every other day. IVIS imaging was applied to monitor tumor growth and distal metastasis. After 4 weeks of treatments, mice were sacrificed for tumor analysis. […] All the mice had developed RCC by the time they were sacrificed. […] In addition to PHTPP and ICI, tamoxifen was also tested on mouse RCC growth.

advanced RCC = settings: 1990's clinical trials; cited from earlier work
ERβ = ERβ (Homo sapiens, UniProt Q92731); settings: 10 μM, previous reports; cited from earlier work
Chain of ERβ (Q92731 whole entry): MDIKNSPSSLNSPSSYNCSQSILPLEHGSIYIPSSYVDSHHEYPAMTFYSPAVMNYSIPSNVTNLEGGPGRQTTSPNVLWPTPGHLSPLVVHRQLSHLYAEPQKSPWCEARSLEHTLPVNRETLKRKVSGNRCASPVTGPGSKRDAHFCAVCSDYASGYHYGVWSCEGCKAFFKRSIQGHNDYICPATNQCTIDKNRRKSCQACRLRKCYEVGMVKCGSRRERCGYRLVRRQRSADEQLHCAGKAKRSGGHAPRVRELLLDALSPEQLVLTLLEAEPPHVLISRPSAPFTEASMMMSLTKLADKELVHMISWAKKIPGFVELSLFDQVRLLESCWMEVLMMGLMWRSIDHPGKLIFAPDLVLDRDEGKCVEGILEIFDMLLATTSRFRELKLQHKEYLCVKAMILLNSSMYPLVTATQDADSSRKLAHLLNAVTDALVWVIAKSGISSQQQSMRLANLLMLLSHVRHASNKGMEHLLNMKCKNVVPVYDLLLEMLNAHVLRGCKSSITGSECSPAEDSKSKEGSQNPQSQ

786-O cells [1] = assay: transwell RCC cell migration assay; type: cell-based, human; settings: for cell migration: 10 nM
A498 cells [2] = assay: transwell RCC cell migration assay; type: cell-based, human
786-O cells [3] = assay: transwell matrigel RCC cell invasion assay; type: cell-based, human; settings: 10 μM
Procedure: (§1) The migration or invasion capability of RCC cells was determined using the transwell assay. In brief, 1×105 (invasion)/2-5×104 (migration) cells were harvested and seeded with serum-free media into the upper chamber with or without coated Matrigel with (BD Corning). The migrated or invaded cells were fixed by 4% paraformaldehyde and stained with 1% toluidine blue. Cell numbers were counted in five randomly chosen microscopic fields (100×) per membrane. When necessary, cells were treated with 10 μM of TGFβR-1 inhibitor (SB525334 Selleckchem) for 48 hr.
(§2) To further validate the ERβ→TGFβ1→pSMAD3 pathway, an interruption approach was applied by using TGFβR-1 inhibitors (10 μM) for the cell invasion assay in both 786-O and A498 cells (FIG. 5D).

A498 cells [4] = assay: transwell matrigel RCC cell invasion assay; type: cell-based, human; settings: 10 μM
Procedure: as §1, §2

pSMAD3 = assay: Western blot after TGFβR-1 inhibitor treatment; type: cell-based, human; settings: after treatment of TGFβR-1 inhibitor, FIG. 5D
Procedure: FIG. 5E illustrates the experimental setting for treatment of RCC with TGFβR-1 inhibitor and migration. RCC cells were cultured for 48 hr and then treated with 10 μM TGFβR-1 inhibitor for 6 hr. RCC cells were then trypsinized and seeded in the upper transwell (5×10^4/well) for 24 hr to determine the migration rate. […] Quantification of migrated cells was shown on the right panel.
The expressions of ERs were determined by the Western blot according to the previous study (Hsu et al., Carcinogenesis, 2014, 35:651-61). Rabbit anti-ERβ polyclonal antibody (GTX 110607 GeneTex Corporation), mouse anti-GAPDH monoclonal antibody (Santa Cruz Biotechnology), rabbit anti-TGFB1 polyclonal antibody (Abcam Biotechnology), and mouse anti-SMAD3 monoclonal antibody (Abcam Biotechnology) were all used and all at 1:1,000 dilution in blocking buffer. The immunopositive bands were visualized with an ECL chemiluminescent detection system (Thermo Scientific, Rockford, Ill.), and the images were transferred to the Bio-rad imaging system. The Western analysis was scored positive if the band of interest was present at the expected molecular weight appropriate for each marker protein. All analyses were done in duplicate.
as §2

786-O cells [5] = assay: RCC cell growth, MTT assay; type: cell-based, human; settings: 10 nM, 786-O (high endogenous ERβ), MTT and colony forming assays
Procedure: (§3) FIG. 2, comprising FIGS. 2A-2F, depicts the results of experiments comparing ERβ expression in RCC cell lines and estrogen/ERβ effects on RCC cell growth. […] Expression of ERα was not detected in tested RCC cells. ERβ has the highest expression level in 786-O and lowest in A498. Breast cancer cell MCF-7 was used as a positive control. […] The growth rate of 786-O cells (with high endogenous ERβ) is increased in the presence of 17β-estradiol (10 nM) as compared with the control Etoh). […] FIGS. 2D-2E show changes in ERβ expression levels can affect the RCC cell growth. A lentivirus system was used to knock-down ERβ in RCC 786-O cells (by lenti-ERβ-shRNA), or to increase ERβ in A498 cells (by lenti-ERβ cDNA). Cell growth rates were determined by MTT assay.
(§4) RCC cells were seeded in 24-well plates (5000 cells/200 μl medium per well) and cultured for 0, 2, 4 and 6 days. Cells were harvested and cell number was calculated using MTT agent.
(§5) To examine the ERβ roles on RCC cell growth, the lentiviral ERβ cDNA and shRNA were used to change the expression of ERβ in 2 RCC cell lines, A498 (low endogenous ERβ) and 786-O (high endogenous ERβ), respectively. 10 nM […] estradiol (E2) was used to activate ERβ and examine the growth changes using MTT assay and colony forming assays. […] Supportively, knocking-down ERβ by ERβ-siRNA in RCC 786-O cells suppressed cell growth, sh-Luciferase as control (FIG. 2D). […]

A498 cells [6] = assay: RCC cell growth, MTT assay; type: cell-based, human; settings: 10 nM, A498 (little ERβ)
Procedure: as §3, §4, §5

[7] = mice carrying 786-O tumors, ip every other day, 4 weeks

In the case of `CC/C(=C(\c1ccccc1)c1ccc(OCCN(C)C)cc1)c1ccccc1` [tamoxifen], the “inhibition of tumor size compared to the control group” value (786-O tumors; RCC in vivo, FIG. 9) is reported as “about 40%”, the “efficacy to inhibit ERβ activity” value (786-O tumors; compared to ICI 182,780 and PHTPP, FIG. 9) is reported as roughly 40% and the “RCC tumor growth and metastasis (IVIS imaging, tumor weights)” value (from here on “RCC tumor growth and metastasis”) (786-O tumors; in vivo) is reported as “less effective on inhibiting RCC tumor”. For the same compound, the “therapeutic efficacy in advanced RCC” value (advanced RCC) was “no significant therapeutic efficacy”.
For `C[C@]12CC[C@@H]3c4ccc(O)cc4C[C@@H](CCCCCCCCC[S+]([O-])CCCC(F)(F)C(F)(F)F)[C@H]3[C@@H]1CC[C@@H]2O` (stereo partly drawn) [ICI 182,780, 7α-[9-(4,4,5,5,5-pentafluoropentylsulfinyl)nonyl]estra-1,3,5(10)-triene-3,17β-diol], the “body weights versus control” value (786-O tumors; [7]) was “higher body weights than control”, the “mice that developed distal metastasis” value (786-O tumors; mice carrying 786-O tumors) was “around 17%” and the “RCC tumor growth and metastasis” value (786-O tumors; in vivo) was “inhibit the RCC tumor growth and metastasis”. The “signs of toxicity or adverse treatment side effects” value (786-O tumors; mouse, in vivo, ip) was “without any signs of toxicity or adverse treatment side effects” and the “estrogen induced ERβ transactivation on EREluciferase reporter activity” value (ERβ) was “effectively inhibit”.
For `Oc1ccc(-c2c(-c3ccccc3)nn3c(C(F)(F)F)cc(C(F)(F)F)nc23)cc1` [PHTPP], the “body weights versus control” value (786-O tumors; [7]) was “higher body weights than control”, the “signs of toxicity or adverse treatment side effects” value (786-O tumors; [7]) was “without any signs of toxicity or adverse treatment side effects” and the “mice that developed distal metastasis” value (786-O tumors; mice carrying 786-O tumors) was “around 17%”. The “RCC tumor growth and metastasis” value (786-O tumors; in vivo) was “inhibit the RCC tumor growth and metastasis” and the “estrogen induced ERβ transactivation on EREluciferase reporter activity” value (ERβ) was “effectively inhibit”.
For `Cc1cccc(-c2[nH]c(C(C)(C)C)nc2-c2ccc3nccnc3c2)n1` [TGFβR-1 inhibitor], the migration ability (786-O cells [1]; 10 μM for 48 hr, 786-O sh-Luc (higher ERβ)) was “dramatically attenuated”, the migration ability (A498 cells [2]; 10 μM for 48 hr, A498 ERβ (higher ERβ)) was “dramatically attenuated” and the ERβ-enhanced invasion (786-O cells [3]) was “suppression of ERβ-enhanced invasion”. The ERβ-enhanced invasion (A498 cells [4]) was “suppression of ERβ-enhanced invasion” and the “pSMAD3 level by Western blot” value (pSMAD3) was “reduced pSMAD3”.
For `C[C@]12CC[C@@H]3c4ccc(O)cc4CC[C@H]3[C@@H]1CC[C@@H]2O` [E2, 17β-estradiol], the cell growth (786-O cells [5]) was “significantly enhanced the cell growth”, the cell growth (A498 cells [6]) was “little E2 stimulating effect” and the cell migration (786-O cells [1]; 786-O sh-Luc control cells) was “could enhance”. The cell migration (786-O cells [1]; ERβ knockdown 786-O cells (786-O-shERβ)) was “little effect” and the cell migration (A498 cells [2]; 10 nM, A498-ERβ cells) was “further stimulated the migration”.
